Data from patent US20240415798A1, “COMPOSITIONS AND METHODS FOR TREATING MUCOSITIS” (Enzychem Lifesciences Corporation, priority 2021, published 2024).
Several values for one entry are separate records, joined by “and”; a condition that tells them apart may be missing. Equal values may be shown once.

Experiments:
IL-1β = assay: Luminex assay of patient plasma, IL-1β; format: in vivo, human
Experimental: (§1) The plasma sample collected from the blood of patients listed in (Table 1 below) was thawed and centrifuged at 10,000 rpm at 4° C. for 2 minutes, and the supernatant was used for analysis. The supernatant was serially diluted, and 50 μl of the samples were dispensed to each well in a 96-well plate. 5O μl of diluted Microparticle Cocktail (R&D systems) shown in Table 2 was added to each well containing samples and incubated for 2 hours at room temperature on a shaker at 800 rpm. The sample mixture was removed and washed with 100 μl of washing buffer three times. Then, 50 μL of diluted Biotin-Antibody Cocktail (R&D systems) to each well and incubate for 1 hour at RT on the shaker at 800 rpm, followed by three times of washing with wash buffer. 50 μL of diluted […] at RT on the shaker at 800 rpm. After washing with wash buffer three times, 100 μl of wash buffer was added to each well, and the sample's fluorescence intensity was obtained using a Luminex analyzer (Luminex) within 90 mins.
(§2) Standard, control and the sample was quantitatively analyzed using the average value of the results obtained by duplicate test.
(§3) The absolute value of each sample's mean fluorescence intensity (MFI) was obtained by comparing it to the standard curve. The value derived as an under-standard was marked as 0 because it is a trace value outside the detection range of the assay kit.
(§4) The standard curve was obtained by the best fit method in ‘MasterPlex QT 2010 (MiraiBio, Hitachi, CA, USA)’ to calculate the response measured value (MFI) for each standard concentration, which has the highest R square value among each calculation method (Highest value =1.0). The sample's resultant concentration value was calculated based on this standard curve.

[1] = Phase 2 clinical study of EC-18, safety (SAE/AE, MTD); format: in vivo
Experimental: (§5) For the study, 25 large institutions and hospitals experienced with head and neck cancer treatment were selected • Stage 1: To Evaluate safety and MTD that can be used for Stage 2 iDSMB: Data and Safety Monitoring Board reviewed safety data every 2 weeks and approved for Stage 2 using MTD 2000 mg. • Stage 2: To Evaluate safety and efficacy 7 weeks Active and 4-6 weeks of STFU until OM is resolved. • 2.0-2.2 Gy daily fraction (5 days a week for 7 weeks) and I week (40 mg/m2) or every 3 weeks (100 mg/m2) cisplatin. • Minimum cumulative radiation dose of 55 Gy.
Stage 1 had 17 total SAEs from a total of 24 patients when Stage 2 had 31 total SAEs from a total of 81 patients. 020-018 patient was determined by investigator to be not related to study drug. Many SAEs occurred due to nausea and vomiting which is a normal symptom for chemo treatment

TGFβ = assay: Luminex assay of patient plasma, TGFβ; format: in vivo, human
Experimental: as §1, §2, §3, §4

[2] = system: severe oral mucositis (SOM); assay: Phase 2 clinical study of EC-18 in chemoradiation-induced oral mucositis (efficacy); format: in vivo, human
Excerpt: Human patients of the following characteristics were enrolled: • 18 years or older • Diagnosis of squamous cell carcinoma of the mouth, oropharynx, hypopharynx or nasopharynx • Planned to receive IMRT with daily fractions of 2.0 Gy to 2.2 Gy to a cumulative dose of at least 60 Gy and a maximum of 72 Gy • Radiation fields to include at least two mucositis sites at risk (buccal mucosa, floor of mouth, ventral and lateral tongue, soft palate) in which both sites receive a minimum cumulative dose of 55 Gy • Planned to receive concomitant single agent chemotherapy with cisplatin
EC-18 was administered in varying patients of the treatment group up to 2000 mg/day. Recommended therapy was 500 mg EC-18 capsule administered 4 times throughout the day (e.g., 2 capsules of 500 mg EC-18 administered within 30 mins after taking breakfast and dinner) for a total daily dosage of 2000 mg EC-18 per day. Treatment protocol lasted 7 weeks while radiation therapy and cisplatin therapy continued during the same time.
as §5
For Efficacy, measured duration of severe oral mucositis (SOM), Incidence of SOM during active treatment.
In Stage 1, we included Stage 1 placebo and 2000 mg patients to Stage 2 for efficacy analysis: • Placebo group: Stage 1 n=2, Stage 2 n=18: Total: 20 • EC-18 2000 mg group: Stage 1 n=5, Stage 2 n=17: Total: 22

[3] = regardless of the incidence of SOM
[4] = PP population, EC-18 2,000 mg vs placebo

CCCCC/C=C\C/C=C\CCCCCCCC(=O)OC(COC(C)=O)COC(=O)CCCCCCCCCCCCCCC (centres unmarked) [EC-18]
IL-1β concentration at 4th and 7th weeks (IL-1β; 4th and 7th weeks of treatment): under the detection limit | IL-1β concentration vs placebo, HPV+/HPV− (IL-1β; regardless of HPV infection state): significantly lower compared with the placebo group | IL-1β concentration vs placebo, with or without SOM (IL-1β; [3]): significantly lower compared with the placebo group | IL-1β concentration vs placebo, weekly or tri-weekly cisplatin (IL-1β; regardless of the weekly or tri-weekly cisplatin treatment): significantly lower than in the placebo group | IL-1β concentration vs placebo, total (IL-1β; throughout seven weeks treatment period): significantly lower than the placebo group | MTD ([1]; Stage 1, daily dose, approved for Stage 2): 2000 mg | serious adverse events (SAE) across study arms ([1]; human, in vivo): no appreciable differences in SAEs were observed across the study arms | attribution of reported AEs ([1]; human, in vivo, 7 weeks): all the reported AEs were attributable to chemoradiation treatment and not to EC-18 | TGF-β concentration vs placebo, total (TGFβ; 7th week of chemoradiation therapy): significantly higher than the placebo group | TGF-β concentration vs placebo, HPV-positive (TGFβ; HPV-positive population): significantly higher compared with placebo | TGF-β concentration vs placebo, with or without SOM (TGFβ; [3]): higher compared with the placebo group | TGFβ concentration vs placebo, tri-weekly cisplatin (TGFβ; sub-population with tri-weekly cisplatin): not significantly different | TGF-β concentration vs placebo, cisplatin once a week (TGFβ; sub-population with weekly cisplatin): significantly higher compared with placebo | reduction of incidence of SOM compared to placebo population ([2]; EC-18 group vs placebo): over 35% | therapeutic benefit over the control group ([2]; EC-18 up to 2000 mg/day, 7 weeks, with radiation and cisplatin): clear therapeutics benefit over the control group | delay of SOM onset compared with placebo [2, 4]: 8 days | delay of first opioid use vs placebo, mean [2, 4]: 6.3 days | delay of first opioid use vs placebo, median [2, 4]: 11.5 days | time to SOM onset ([2]; PP population, EC-18 2,000 mg, placebo 43 days): 51 days | incidence of SOM through active treatment period ([2]; PP population, baseline through 7-week active treatment period, EC-18 2,000 mg, placebo 65.0%): 36.4% | incidence of SOM (number of subjects) ([2]; PP population, baseline through active treatment period and STFU, EC-18 2000 mg (n=22), placebo 14): 10 | incidence of SOM ([2]; PP population, baseline through active treatment period and STFU, EC-18 2000 mg, placebo 70.0%): 45.5% and 45% | time to first use of opioid analgesics, median ([2]; PP population, evaluable subjects n=8, EC-18 2000 mg, placebo 25.5 days): 37 days | time to first use of opioid analgesics, mean ([2]; PP population, evaluable subjects n=8, EC-18 2000 mg, placebo 26 days): 32.3 days | SOM incidence at each week interval ([2]; PP population, weekly intervals, vs placebo): less than placebo group | incidence of SOM, HPV+ ([2]; subjects with HPV+, EC-18 2000 mg, placebo 66.7%): 35.3% | incidence of SOM, HPV− ([2]; subjects with HPV−, EC-18 2000 mg, placebo 71.4%): 75% | incidence of SOM, tri-weekly cisplatin ([2]; subjects with tri-weekly cisplatin, EC-18 2000 mg, placebo 70.0%): 66.7% | incidence of SOM, weekly cisplatin ([2]; subjects with weekly cisplatin, EC-18 2000 mg, placebo 70.0%): 37.5%
